CO/N=C(\C(=O)N[C@@H]1C(=O)N2C(C(=O)[O-])=C(COC(C)=O)CS[C@H]12)c1csc(N)n1.[Na+]
solubility (mole fraction)
Details	in DMF	in DMSO	in NMP	in formamide	in water
278.15 K	0.0407	–	0.000254	0.0483	0.018
280.15 K	0.0413	–	0.000935	0.0503	0.0181
282.15 K	–	–	–	–	0.0182
283.15 K	0.0436	–	0.00152	0.053	0.0183
285.15 K	0.0462	–	0.00192	0.0562	0.0184
287.15 K	–	–	–	–	0.0184
288.15 K	0.0474	–	0.00279	0.0596	0.0184
290.15 K	0.0537	–	0.00383	0.0615	0.0185
292.15 K	–	–	–	–	0.0186
293.15 K	0.057	0.0738	0.00524	0.0644	0.0188
295.15 K	0.06	0.0744	0.00869	0.0652	0.0188
297.15 K	–	0.0751	–	–	0.0189
298.15 K	0.0662	0.0755	0.0118	0.0674	0.0189
300.15 K	0.069	0.077	0.038	0.0688	–
302.15 K	–	0.0777	–	–	–
303.15 K	0.0757	0.0779	0.0737	0.0702	–
305.15 K	0.0785	0.0783	0.083	0.0719	–
307.15 K	–	0.0785	–	–	–
308.15 K	0.0845	0.0788	0.103	0.0733	–

Source: BigSolDB 2.1
